Data published in patent US20240009269A1 (priority 2020, published 2024).

Experiments:
[1] = test system: tissue-engineered dhBMECs microvessels; experiment: BBB opening in tissue-engineered BBB microvessels (500 kDa dextran leakage); format: cell-based, human
Description: Three-dimensional blood-brain barrier microvessels were fabricated as previously reported (FIGS. 10A and 10B) [Linville, R. M., et al., Biomaterials, 2019. 190-191: p. 24-37] 150 μm diameter and 1 cm long channels were patterned in 7 mg mL^−1 type I collagen (Corning) using nitinol wire (Malin Co.) housed within polydimethylsiloxane (PDMS; Dow Corning). Channels were cross-linked by incubation in 20 mM genipin (Wako Biosciences) for 2 hours to increase cell adhesion. 2dhBMECs were suspended in BBB induction medium at a concentration of 5×10^6 cells mL^−1 and seeded into channels. Microvessels were perfused using BBB induction medium for 24 hours and then switched to BBB maintenance medium. During cell seeding and the first day of perfusion, 10 μM ROCK inhibitor Y27632 (ATCC) was supplemented to increase adhesion. An average shear stress of ˜2 dyn cm^−2 was maintained with a reservoir height difference (Δh) of 3 cm, corresponding to a volumetric flow rate of ˜250 μL h^−1 (FIG. 11D). This shear stress was estimated from the Poiseuille equation: τ=μQ)/2πd3 where μ is the media dynamic viscosity, Q is the volumetric flow rate, and d is the microvessel diameter.
Live-cell imaging was conducted to study dynamic changes in in vitro BBB permeability and microvessel structure. Microvessels were imaged using a 10×objective equipped on an inverted microscope (Nikon Eclipse TiE) maintained at 37° C. and 5% CO2 (FIG. S2C). Epifluorescence illumination was provided by an X-Cite 120LEDBoost (Excelitas Technologies). Phase contrast and fluorescence images were acquired every two minutes with the focal plane set to the microvessel midplane. The entire image collected consists of ten adjacent imaging frames. […] A dextran solute panel comprised of 200 μM Cascade Blue-conjugated 3 kDa dextran (Cat. No. D7132. Thermo Fisher Scientific), 16 μM Alexa Fluor647-conjugated 10 kDa dextran (Cat. No. D22914, Thermo Fisher Scientific), and 1.2 μM fluorescein-conjugated 500 kDa dextran (Cat. No. D7136, Thermo Fisher Scientific) was prepared in BBB maintenance medium. Fluorophores were independently excited and the respective emissions were collected using: Nikon UV-2E/C for 3 kDa dextran (50 ms exposure), Chroma 41008 for 10 kDa dextran (20 ms exposure), and Nikon B-2E/C for 500 kDa dextran (50 ms exposure).
Image processing was performed using ImageJ (NIH) to quantify BBB opening (FIGS. 11A-11D). First, images were cropped to a standard size of 6 mm×0.6 mm. To determine the spatial heterogeneity of BBB permeability, microvessels were sectioned into 10 regions of interest (ROIs), each a 0.6 mm×0.6 mm square (FIG. 11A). For each ROI, the integrated pixel density was plotted over time (FIG. 11A). The permeability (cm s^−1) was calculated using P=(r/2)(1/ΔI)(dI/dt), where r is the vessel radius, ΔI is the increase in fluorescence intensity upon perfusion of the fluorophore, and (dI/dt) is the rate of increase in fluorescence intensity as solute exits into the gel. […] To visually display permeability dynamics, heatmaps were generated from 90 instantaneous permeability values across the 10 ROIs (x-axis) and nine 10-minute periods (y-axis). […] 28(1): p. 41-51 in ImageJ (FIG. 11B). Under baseline conditions, thresholding results in the lumen designated as white (1) and extracellular matrix (ECM) as black (0). […] From binarized images, individual focal leaks were manually counted over time. Leaks emerging from the sides of the image frame were not counted. To quantify the duration of a BBB opening effect, we identified the time at which the last focal leak appeared and termed the focal leak reversibility time constant (τfocal leaks).

[2] = test system: mouse brain; experiment: Safety of BBBO in mice (neurological deficits, MRI, histology); format: in vivo
Description: 273-285] in ImageJ. […] Subsequently, animals were sacrificed for further histological assessment.
In brief, each post-contrast image was first fitted into two Gaussian distributions, and the cutoff of signal intensity was determined. Data analysis and calculation of area fraction was performed using custom-written MATLAB scripts. 24 hours and 7 days after melittin treatment, animals were trans-cardially perfused with 5% sucrose in deionized water and then 4% paraformaldehyde in phosphate buffered saline. The brains were cryopreserved in 30% sucrose and cryo-sectioned in 30 μm slices. Primary antibodies used in the study are described in Table 2. Goat anti-rabbit Alexa Fluor-488 or Alexa Fluor-594 (1:250, Life Technologies) were used as secondary antibodies for fluorescence assessment using an inverted microscope (Zeiss, Axio Observer Z1). For demyelination assessment, eriochrome cyanine R staining was performed as described previously [Golubczyk, D., et al., Mol Neurobiol, 2019. 56(8): p. 5740-5748] with assessment using bright-field microscopy. Quantitation of immunohistochemistry (based on relative fluorescence intensity) and MRI analysis (based on intensity) were performed using Image J. For each mouse, three ROIs of the ipsilateral and contralateral BBBO regions were drawn, respectively.

## CC[C@H](C)[C@H](NC(=O)CN)C(=O)NCC(=O)N[C@@H](C)C(=O)N[C@H](C(=O)N[C@@H](CC(C)C)C(=O)N[C@@H](CCCCN)C(=O)N[C@H](C(=O)N[C@@H](CC(C)C)C(=O)N[C@H](C(=O)N[C@H](C(=O)NCC(=O)N[C@@H](CC(C)C)C(=O)N1CCC[C@H]1C(=O)N[C@@H](C)C(=O)N[C@@H](CC(C)C)C(=O)N[C@H](C(=O)N[C@@H](CO)C(=O)N[C@@H](Cc1c[nH]c2ccccc12)C(=O)N[C@H](C(=O)N[C@@H](CCCCN)C(=O)N[C@@H](CCCNC(=N)N)C(=O)N[C@@H](CCCCN)C(=O)N[C@@H](CCCNC(=N)N)C(=O)N[C@@H](CCC(N)=O)C(=O)N[C@@H](CCC(N)=O)C(N)=O)[C@@H](C)CC)[C@@H](C)CC)[C@@H](C)O)[C@@H](C)O)C(C)C)C(C)C [melittin]
[1]
  increase in delivery of 500 kDa dextran across the blood-brain barrier in vitro: ≤ 25 fold
[1]; 5 μM melittin for 90 minutes, continuous
  500 kDa dextran permeability: high 500 kDa dextran permeability
[1]; 50 μM·minute dose
  average permeability of 500 kDa dextran, fold higher than baseline: ~25 fold
[1]; above threshold doses, retrospective comparison
  focal leak density relative to mannitol: 3 fold
[1]; all doses, 3-100 μM·minute, 500 kDa dextran
  focal leaks 24 hours after melittin exposure: focal leaks were not observed
[1]; high doses
  barrier function after 24 hours: barrier function was regained 24 hours later
[1]; high doses (10-minute 10 μM)
  BBBO: induced sustained BBBO, but did not recover during the 90 minutes of imaging
[1]; intermediate doses (5-minute 5 μM)
  BBBO: induced BBBO and resulted in recovery during the 90 minute imaging period
[1]; intermediate doses (20-50 μM·minute)
  character of focal leaks: transient
[1]; low doses (2-minute 1.5 μM)
  BBBO: did not induce BBBO
[2]; 3 μM·minute
  long-term survival (30 days): reached that endpoint without complications
[2]; 3 μM·minute, 11 mice
  mortality: One mouse in this group died within 12 hours
  neurological deficits (paralysis, seizure, or rotation): all animals except one woke up from anesthesia without apparent neurological deficits
[2]; 3 μM·minute, 24 hours
  GFAP, Iba1, NeuN, and caspase-3 intensities between hemispheres: not statistically different
  MRI (T2, SWI): no evidence of edema or inflammation on T2 scans or micro-hemorrhages on susceptibility weighted imaging (SWI) scans
[2]; 3 μM·minute, 7 days
  GFAP and Iba1 intensity, ipsilateral vs contralateral: no statistically significant differences
  MRI: no abnormalities were detected
  NeuN and caspase-3 intensity in the ipsilateral hemisphere: no statistically significant change
[2]; 3 μM·minute, 7 days, hippocampus
  eriochrome cyanine staining (myelin): normal myelin
[2]; 5 μM·minute
  behavior after dosing: mice displayed rotational behavior indicating neurological damage
